The values below come from patent publication US20210403866A1, “ENHANCED DENDRITIC CELL IMMUNE ACTIVATION BY COMBINED INHIBITION OF NR2F6 WITH CANNIBIDIOL” (Regen Biopharma, Inc., priority 2019, published 2021).

Assay [1] deals with WT1 mRNA. Particulars: human MIAPaCa2 PC cells; cited from earlier work.
In assay [2] the test system is WT1 mRNA. The settings on record: GEM-treated MIAPaCa2-bearing SCID mice; cited from earlier work.
The test system of assay [3] is allogeneic T cells. Briefly: Mixed Lymphocyte Reaction with dendritic cells silenced for NR2F6. It counts as cell-based. Particulars: increased amounts of cannabidiol added to dendritic cells silenced for NR2F6; FIG. 2. The procedure: (§1) Dendritic cells where added to allogeneic T cells in 96 well plates, wherein allogeneic T cells where added at 40,000 cells per plate and the indicated number of dendritic cells added. Culture was performed for 96 hours with tritiated thymidine added at the last 12 hours of culture at a concentration of 1 microcurie per well. Black bars indicate no cannabidiol added to dendritic cells, striped bars indicate 1 micro Molar and white indicate 2 micromolar. […] Results are shown in graph, FIG. 1.
MLR was performed as in example 1. All cells where silenced for NR2F6. An increase in allostimulatory activity was observed. Results are shown in graph, FIG. 2.

Assay [4] concerns allogeneic T cells. Briefly: Mixed Lymphocyte Reaction, dendritic cells added to allogeneic T cells, tritiated thymidine. It counts as cell-based. The settings on record: cannabidiol 1 and 2 micromolar added to dendritic cells; 40,000 allogeneic T cells; 96 hours culture; FIG. 1. The protocol: as §1
Assay [5] has as its system WT1 mRNA. The settings on record: mWT1-C1498, compared with DAC treatment; cited from earlier work.
Assay [6] deals with murine WT1-transfected C1498 (mWT1-C1498). The settings on record: increasing doses; cited from earlier work.

Regarding `Nc1ccn([C@@H]2O[C@H](CO)[C@@H](O)C2(F)F)c(=O)n1` [GEM, gemcitabine], in the assay with WT1 mRNA [1], the “WT1 mRNA levels” value is “enhanced WT1 mRNA levels”. Further, the “WT1 mRNA in tumor tissue” value with WT1 mRNA [2] is listed as “increase in WT1 mRNA”.

Take `C=C(C)[C@@H]1CCC(C)=C[C@H]1c1c(O)cc(CCCCC)cc1O` [cannabidiol]: in the assay with allogeneic T cells [3], the “allostimulatory activity in MLR” value is listed as “dose dependent increase in allostimulatory activity”. Moreover, the “T cell activation in Mixed Lymphocyte Reaction” value with allogeneic T cells [4] is recorded as “dose dependent suppression of T cell activation”.

As for `Nc1ncn([C@@H]2O[C@H](CO)[C@@H](O)[C@H]2O)c(=O)n1` [AZA, azacitidine], the “up-regulation of WT1 mRNA” value in the assay on WT1 mRNA [5] is “induced up-regulation of mRNA, but not to the same degree as with DAC treatment”. In assay [6], the “number of viable cells” value was “decreased the number of viable cells in a dose- or time-dependent manner”.
